B1: parathyroid hormone (protein, UniProt P01270 32-115, looked up)
Parathyroid hormone: SVSEIQLMHNLGKHLNSMERVEWLRKKLQDVHNFVALGAPLAPRDAGSQRPRKKEDNVLVESHEKSLGEADKADVNVLTKAKSQ
notes: Already known parathyroid hormone which is a bony tissue absorbance hormone

Legend:
TNF = details: prior art statement; cited from earlier work
[1] = test system: parietal bones of fowl's embryo; experiment: Osteogenesis stimulation: osteoclast activation test, 45Ca leakage (Table 9); details: 1 unit/ml
Experimental: Stimulation of Osteogenesis
This stimulation was confirmed by an osteolast activation test.
Osteoclast cells are those in charge of absorbing bony tissue which destroy old bones in said tissue. […] As a result, the osteogenesis is presumed to be stimulated.
In the osteoclast activation test, parietal bones of fowl's embryo are used as experimental samples. That is, the parietal bones of fowl's embryo are labelled with ^45 Ca, and are cultured in a medium containing a medicine candidate (treated group) or in a said candidate-free medium (control group), and thereafter the quantity of the ^45 Ca remaining in the bones and that of the ^45 Ca leaked into the medium during culture are determined. The ^45 Ca leakage rates in both tile treated and control groups are calculated according to the following equation:
^45 Ca leakage rate=(Quantity of ^45 Ca leaked)/(Quantity of
remaining ^45 Ca+Quantity of ^45 Ca leaked)
The effect of the candidate is expressed by the following T/C rate:
T/C rate=(Quantity of ^45 Ca leaked in the treated group)/(Quantity of
^45 Ca leaked in the control group) […]
4) The medium (each, 250 μl) was added to 4.5 ml of ACSII scintillator (Amersham Co. In U.K.), and the counting was made on the basis of liquid scintillation to determine the quantity of the 45Ca leaked into the medium. […]

Molecule | TNF productivity (TNF) | 45Ca leakage, Treated T [1] | T/C rate [1]
polysaccharide K [PSK] | no TNF productivity |  | 
lentinan | no TNF productivity |  | 
CC(C)C[C@H](NC(=O)[C@@H](O)[C@H](N)Cc1ccccc1)C(=O)O [Bestatin, ubenimex] | no TNF productivity |  | 
sizofiran [Sonifilan] | no TNF productivity |  | 
B1 |  | 4.46 | 1.22

Reference: patent US5382430A, “Method for the stimulation of the immune system of an animal by use of limulus test-positive plant glycolipid” (priority 1989, dated 1995)
